{
  "source": "patent US5108896A",
  "about": "“Simultaneous immunoassay of two analytes using dual enzyme labelled antibodies” (priority 1986, dated 1992)",
  "target": "β-galactosidase (Escherichia coli, UniProt P00722)",
  "sequence (P00722 2-1024)": "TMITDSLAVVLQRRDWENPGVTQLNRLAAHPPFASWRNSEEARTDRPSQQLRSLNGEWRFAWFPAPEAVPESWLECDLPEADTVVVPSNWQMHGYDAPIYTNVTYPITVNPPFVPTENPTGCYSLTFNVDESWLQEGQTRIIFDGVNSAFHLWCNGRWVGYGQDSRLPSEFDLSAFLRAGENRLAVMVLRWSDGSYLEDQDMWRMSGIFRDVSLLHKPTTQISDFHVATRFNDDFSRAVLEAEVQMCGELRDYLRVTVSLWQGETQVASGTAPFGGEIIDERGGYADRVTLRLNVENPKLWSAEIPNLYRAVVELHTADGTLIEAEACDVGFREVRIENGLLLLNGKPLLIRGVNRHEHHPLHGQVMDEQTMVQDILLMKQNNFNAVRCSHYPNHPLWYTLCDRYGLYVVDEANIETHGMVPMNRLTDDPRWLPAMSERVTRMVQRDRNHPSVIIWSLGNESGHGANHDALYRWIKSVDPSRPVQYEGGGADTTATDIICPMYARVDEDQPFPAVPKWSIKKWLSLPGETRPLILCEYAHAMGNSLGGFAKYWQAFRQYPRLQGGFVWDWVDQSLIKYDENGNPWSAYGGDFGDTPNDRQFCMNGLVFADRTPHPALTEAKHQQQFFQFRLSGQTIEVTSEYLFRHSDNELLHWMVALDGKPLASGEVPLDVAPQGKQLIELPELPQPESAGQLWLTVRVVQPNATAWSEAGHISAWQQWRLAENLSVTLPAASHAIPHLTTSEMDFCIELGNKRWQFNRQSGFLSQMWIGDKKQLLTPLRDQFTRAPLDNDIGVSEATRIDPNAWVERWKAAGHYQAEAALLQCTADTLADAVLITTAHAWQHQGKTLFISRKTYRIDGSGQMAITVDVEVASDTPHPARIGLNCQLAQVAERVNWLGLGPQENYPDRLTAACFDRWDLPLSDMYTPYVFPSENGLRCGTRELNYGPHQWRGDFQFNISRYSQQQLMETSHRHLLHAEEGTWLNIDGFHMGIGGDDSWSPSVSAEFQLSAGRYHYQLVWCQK",
  "assay": "Kinetics of β-galactosidase with p-NPBG, with and without diethanolamine",
  "assay_type": "biochemical",
  "conditions": "for Km: read-out: Michaelis constant (Km) of β-galactosidase for p-NPBG",
  "experimental": "β-galactosidase has a pH optimum of 7.4 for p-nitrophenyl-β-D-galactoside (p-NPBG), although in a single assay format using normal substrate concentrations (up to approximately 5 mM), the pH can be raised to 8.6 with only a slight loss (approximately 20%) of activity. […] We have also found, however, that by increasing the concentration of p-NPBG at pH 8.6, even in the presence of about 1M diethanolamine, substantial activity of β-galactosidase can be achieved. Substantial activity of β-galactosidase is also obtained if the same reaction medium is used but with p-NPBG replaced by o-NPBG.",
  "note": "Read-outs that look alike come from different tables or passages of the source.",
  "data": [
    {"smiles": "OCCNCCO", "note": "[diethanolamine]", "values": [
      {"measurement": "activity of β-galactosidase (inhibition by diethanolamine)", "setting": "about 1M diethanolamine, pH 8.6, p-NPBG at normal substrate concentrations (up to approximately 5 mM)", "value": "almost totally abolished"}
    ]},
    {"smiles": "O=[N+]([O-])c1ccc(O[C@@H]2O[C@H](CO)[C@H](O)[C@H](O)[C@H]2O)cc1", "note": "[p-NPBG, p-nitrophenyl-β-D-galactoside]", "values": [
      {"measurement": "Km", "setting": "in the presence of 1M diethanolamine (competitive inhibition)", "value": 21, "unit": "mM"},
      {"measurement": "Km", "setting": "without diethanolamine", "value": 0.066, "unit": "mM"}
    ]}
  ]
}
